According to ChEMBL document CHEMBL5316329, “Structure-Based Optimization of 2,4,5-Trisubstituted Pyrimidines as Potent HIV-1 Non-Nucleoside Reverse Transcriptase Inhibitors: Exploiting the Tolerant Regions of the Non-Nucleoside Reverse Transcriptase Inhibitors' Binding Pocket” (J Med Chem, 2023):

Tested on: Human immunodeficiency virus 1
Test: Antiviral activity against wild-type HIV-1 IIIB infected in human MT4 cells assessed as virus-induced cytopathicity treated for 5 days by MTT assay
Type: functional, organism-based
Details: Human immunodeficiency virus 1, IIIB, MT4, 120 h

Point of comparison: Cc1cc(/C=C/C#N)cc(C)c1Oc1nc(NC2CCN(Cc3ccc(C(N)=O)cc3)CC2)ncc1-c1ccc(O)cc1, EC50 5.66 nM. Against it:
- Cc1cc(/C=C/C#N)cc(C)c1Oc1nc(NC2CCN(Cc3ccc(C(N)=O)cc3)CC2)ncc1-c1ccccc1O — within 1.5-fold, 5.99 nM
- Cc1cc(/C=C/C#N)cc(C)c1Oc1nc(NC2CCN(Cc3ccc(C(N)=O)cc3)CC2)ncc1-c1ccc(N)cc1 — 1.7-fold lower, 3.41 nM
- Cc1cc(/C=C/C#N)cc(C)c1Cc1nc(NC2CCN(Cc3ccc(S(C)(=O)=O)cc3)CC2)ncc1-c1cnc(N)nc1 — within 1.5-fold, 4.16 nM
- CC(=O)c1ccc(-c2cnc(NC3CCN(Cc4ccc(S(N)(=O)=O)cc4)CC3)nc2Oc2c(C)cc(/C=C/C#N)cc2C)cc1 — within 1.5-fold, 5.34 nM
- Cc1cc(/C=C/C#N)cc(C)c1Oc1nc(NC2CCN(Cc3ccc(C(N)=O)cc3)CC2)ncc1-c1ccccc1F — within 1.5-fold, 7.4 nM

Tested on: Human immunodeficiency virus 1
Test: Antiviral activity against NNRTI-resistant HIV-1 RES056 infected in human MT4 cells assessed as virus-induced cytopathicity treated for 5 days by MTT assay
Type: functional, organism-based
Details: Human immunodeficiency virus 1, RES056, MT4, 120 h

Point of comparison: Cc1cc(/C=C/C#N)cc(C)c1Oc1nc(NC2CCN(Cc3ccc(C(N)=O)cc3)CC2)ncc1-c1ccccc1F, EC50 192 nM. Against it:
- Cc1cc(/C=C/C#N)cc(C)c1Oc1nc(NC2CCN(Cc3ccc(C(N)=O)cc3)CC2)ncc1-c1ccccc1O — 1.6-fold lower, 123 nM
- Cc1cc(/C=C/C#N)cc(C)c1Oc1nc(NC2CCN(Cc3ccc(C(N)=O)cc3)CC2)ncc1-c1ccc(N)cc1 — 10-fold lower, 18.9 nM
- Cc1cc(/C=C/C#N)cc(C)c1Oc1nc(NC2CCN(Cc3ccc(C(N)=O)cc3)CC2)ncc1-c1ccc(O)cc1 — within 1.5-fold, 150 nM
- Cc1cc(/C=C/C#N)cc(C)c1Cc1nc(NC2CCN(Cc3ccc(S(C)(=O)=O)cc3)CC2)ncc1-c1cnc(N)nc1 — 6.4-fold lower, 29.8 nM
- CC(=O)c1ccc(-c2cnc(NC3CCN(Cc4ccc(S(N)(=O)=O)cc4)CC3)nc2Oc2c(C)cc(/C=C/C#N)cc2C)cc1 — 4.7-fold lower, 40.7 nM

Tested on: not listed separately
Test: Cytotoxicity against human MT4 cells assessed as reduction in cell viability treated for 5 days by MTT assay
Type: toxicity, cell-based
Details: time 5 day

Point of comparison: Cc1cc(/C=C/C#N)cc(C)c1Oc1nc(NC2CCN(Cc3ccc(C(N)=O)cc3)CC2)ncc1-c1ccc(O)cc1, CC50 at 120 h 21300 nM. Against it:
- Cc1cc(/C=C/C#N)cc(C)c1Oc1nc(NC2CCN(Cc3ccc(C(N)=O)cc3)CC2)ncc1-c1ccccc1O — 1.9-fold lower, 11200 nM
- Cc1cc(/C=C/C#N)cc(C)c1Oc1nc(NC2CCN(Cc3ccc(C(N)=O)cc3)CC2)ncc1-c1ccc(N)cc1 — 5.4-fold lower, 3910 nM
- Cc1cc(/C=C/C#N)cc(C)c1Cc1nc(NC2CCN(Cc3ccc(S(C)(=O)=O)cc3)CC2)ncc1-c1cnc(N)nc1 — 12-fold lower, 1730 nM
- CC(=O)c1ccc(-c2cnc(NC3CCN(Cc4ccc(S(N)(=O)=O)cc4)CC3)nc2Oc2c(C)cc(/C=C/C#N)cc2C)cc1 — 2.6-fold lower, 8090 nM
- Cc1cc(/C=C/C#N)cc(C)c1Oc1nc(NC2CCN(Cc3ccc(C(N)=O)cc3)CC2)ncc1-c1ccccc1F — 2-fold lower, 10500 nM

Tested on: not listed separately
Test: Selectivity index, ratio of CC50 for human MT4 cells to EC50 for wild-type HIV-1 IIIB infected in human MT4 cells
Type: toxicity, cell-based
Details: read-out: Selectivity Index

Point of comparison: Cc1cc(/C=C/C#N)cc(C)c1Oc1nc(NC2CCN(Cc3ccc(C(N)=O)cc3)CC2)ncc1-c1ccccc1F, selectivity ratio 1420. Against it:
- Cc1cc(/C=C/C#N)cc(C)c1Oc1nc(NC2CCN(Cc3ccc(C(N)=O)cc3)CC2)ncc1-c1ccccc1O — higher, 1870
- Cc1cc(/C=C/C#N)cc(C)c1Oc1nc(NC2CCN(Cc3ccc(C(N)=O)cc3)CC2)ncc1-c1ccc(N)cc1 — lower, 1140
- Cc1cc(/C=C/C#N)cc(C)c1Oc1nc(NC2CCN(Cc3ccc(C(N)=O)cc3)CC2)ncc1-c1ccc(O)cc1 — higher, 3760
- Cc1cc(/C=C/C#N)cc(C)c1Cc1nc(NC2CCN(Cc3ccc(S(C)(=O)=O)cc3)CC2)ncc1-c1cnc(N)nc1 — lower, 416
- CC(=O)c1ccc(-c2cnc(NC3CCN(Cc4ccc(S(N)(=O)=O)cc4)CC3)nc2Oc2c(C)cc(/C=C/C#N)cc2C)cc1 — higher, 1520

Tested on: not listed separately
Test: Selectivity index, ratio of CC50 for human MT4 cells to EC50 for NNRTI-resistant HIV-1 RES056 infected in human MT4 cells
Type: toxicity, cell-based
Details: read-out: Selectivity Index

Point of comparison: Cc1cc(/C=C/C#N)cc(C)c1Oc1nc(NC2CCN(Cc3ccc(C(N)=O)cc3)CC2)ncc1-c1ccccc1O, selectivity ratio 91. Against it:
- Cc1cc(/C=C/C#N)cc(C)c1Oc1nc(NC2CCN(Cc3ccc(C(N)=O)cc3)CC2)ncc1-c1ccc(N)cc1 — higher, 207
- Cc1cc(/C=C/C#N)cc(C)c1Oc1nc(NC2CCN(Cc3ccc(C(N)=O)cc3)CC2)ncc1-c1ccc(O)cc1 — higher, 142
- Cc1cc(/C=C/C#N)cc(C)c1Cc1nc(NC2CCN(Cc3ccc(S(C)(=O)=O)cc3)CC2)ncc1-c1cnc(N)nc1 — lower, 58
- CC(=O)c1ccc(-c2cnc(NC3CCN(Cc4ccc(S(N)(=O)=O)cc4)CC3)nc2Oc2c(C)cc(/C=C/C#N)cc2C)cc1 — higher, 198
- Cc1cc(/C=C/C#N)cc(C)c1Oc1nc(NC2CCN(Cc3ccc(C(N)=O)cc3)CC2)ncc1-c1ccccc1F — lower, 55

Biological target: Human immunodeficiency virus type 1 reverse transcriptase (Human immunodeficiency virus 1, UniProt Q72547)
Test: Inhibition of wild-type HIV-1 reverse transcriptase assessed as inhibition of biotin-dUTP incorporation
Details: not given

Point of comparison: Cc1cc(/C=C/C#N)cc(C)c1Oc1nc(NC2CCN(Cc3ccc(C(N)=O)cc3)CC2)ncc1-c1ccc(N)cc1, IC50 108 nM. Against it:
- Cc1cc(/C=C/C#N)cc(C)c1Oc1nc(NC2CCN(Cc3ccc(C(N)=O)cc3)CC2)ncc1-c1ccccc1O — 1.6-fold higher, 178 nM
- Cc1cc(/C=C/C#N)cc(C)c1Oc1nc(NC2CCN(Cc3ccc(C(N)=O)cc3)CC2)ncc1-c1ccc(O)cc1 — 1.6-fold higher, 171 nM
- Cc1cc(/C=C/C#N)cc(C)c1Cc1nc(NC2CCN(Cc3ccc(S(C)(=O)=O)cc3)CC2)ncc1-c1cnc(N)nc1 — the same, 108 nM
- CC(=O)c1ccc(-c2cnc(NC3CCN(Cc4ccc(S(N)(=O)=O)cc4)CC3)nc2Oc2c(C)cc(/C=C/C#N)cc2C)cc1 — within 1.5-fold, 130 nM
- Cc1cc(/C=C/C#N)cc(C)c1Oc1nc(NC2CCN(Cc3ccc(C(N)=O)cc3)CC2)ncc1-c1ccccc1F — within 1.5-fold, 154 nM

Tested on: Human immunodeficiency virus 1
Test: Antiviral activity against HIV-1 harboring L100I mutant infected in human MT4 cells assessed as virus-induced cytopathicity treated for 5 days by MTT assay
Type: functional, organism-based
Details: Human immunodeficiency virus 1, MT4, 120 h; read-out: EC50

Point of comparison: CC(=O)c1ccc(-c2cnc(NC3CCN(Cc4ccc(S(N)(=O)=O)cc4)CC3)nc2Oc2c(C)cc(/C=C/C#N)cc2C)cc1, EC50 10.8 nM. Against it:
- Cc1cc(/C=C/C#N)cc(C)c1Oc1nc(NC2CCN(Cc3ccc(C(N)=O)cc3)CC2)ncc1-c1ccc(N)cc1 — 3.3-fold lower, 3.31 nM

Tested on: Human immunodeficiency virus 1
Test: Antiviral activity against HIV-1 harboring K103N mutant infected in human MT4 cells assessed as virus-induced cytopathicity treated for 5 days by MTT assay
Type: functional, organism-based
Details: Human immunodeficiency virus 1, MT4, 120 h; read-out: EC50

Point of comparison: CC(=O)c1ccc(-c2cnc(NC3CCN(Cc4ccc(S(N)(=O)=O)cc4)CC3)nc2Oc2c(C)cc(/C=C/C#N)cc2C)cc1, EC50 5.18 nM. Against it:
- Cc1cc(/C=C/C#N)cc(C)c1Oc1nc(NC2CCN(Cc3ccc(C(N)=O)cc3)CC2)ncc1-c1ccc(N)cc1 — within 1.5-fold, 3.53 nM

Tested on: Human immunodeficiency virus 1
Test: Antiviral activity against HIV-1 harboring Y181C mutant infected in human MT4 cells assessed as virus-induced cytopathicity treated for 5 days by MTT assay
Type: functional, organism-based
Details: Human immunodeficiency virus 1, MT4, 120 h; read-out: EC50

Point of comparison: CC(=O)c1ccc(-c2cnc(NC3CCN(Cc4ccc(S(N)(=O)=O)cc4)CC3)nc2Oc2c(C)cc(/C=C/C#N)cc2C)cc1, EC50 10.2 nM. Against it:
- Cc1cc(/C=C/C#N)cc(C)c1Oc1nc(NC2CCN(Cc3ccc(C(N)=O)cc3)CC2)ncc1-c1ccc(N)cc1 — 2.1-fold lower, 4.81 nM

Tested on: Human immunodeficiency virus 1
Test: Antiviral activity against HIV-1 harboring Y188L mutant infected in human MT4 cells assessed as virus-induced cytopathicity treated for 5 days by MTT assay
Type: functional, organism-based
Details: Human immunodeficiency virus 1, MT4, 120 h; read-out: EC50

Point of comparison: CC(=O)c1ccc(-c2cnc(NC3CCN(Cc4ccc(S(N)(=O)=O)cc4)CC3)nc2Oc2c(C)cc(/C=C/C#N)cc2C)cc1, EC50 28.5 nM. Against it:
- Cc1cc(/C=C/C#N)cc(C)c1Oc1nc(NC2CCN(Cc3ccc(C(N)=O)cc3)CC2)ncc1-c1ccc(N)cc1 — within 1.5-fold, 22.8 nM

Tested on: Human immunodeficiency virus 1
Test: Antiviral activity against HIV-1 E138K mutant infected in human MT4 cells assessed as virus-induced cytopathicity treated for 5 days by MTT assay
Type: functional, organism-based
Details: Human immunodeficiency virus 1, MT4, 120 h; read-out: EC50

Point of comparison: CC(=O)c1ccc(-c2cnc(NC3CCN(Cc4ccc(S(N)(=O)=O)cc4)CC3)nc2Oc2c(C)cc(/C=C/C#N)cc2C)cc1, EC50 12 nM. Against it:
- Cc1cc(/C=C/C#N)cc(C)c1Oc1nc(NC2CCN(Cc3ccc(C(N)=O)cc3)CC2)ncc1-c1ccc(N)cc1 — 2.4-fold lower, 5.05 nM

Tested on: Human immunodeficiency virus 1
Test: Antiviral activity against HIV-1 F227L/V106A mutant infected in human MT4 cells assessed as virus-induced cytopathicity treated for 5 days by MTT assay
Type: functional, organism-based
Details: Human immunodeficiency virus 1, MT4, 120 h; read-out: EC50

Point of comparison: Cc1cc(/C=C/C#N)cc(C)c1Oc1nc(NC2CCN(Cc3ccc(C(N)=O)cc3)CC2)ncc1-c1ccc(N)cc1, EC50 9.18 nM. Against it:
- CC(=O)c1ccc(-c2cnc(NC3CCN(Cc4ccc(S(N)(=O)=O)cc4)CC3)nc2Oc2c(C)cc(/C=C/C#N)cc2C)cc1 — 2.5-fold higher, 22.6 nM
